In ChEMBL document CHEMBL2176889, “Design, synthesis, and pharmacological evaluation of monocyclic pyrimidinones as novel inhibitors of PDE5” (J Med Chem, 2012):
The source made the active and inactive calls. The calls are words filed in the database; no cut-off is given here.

Legend:
[1] = molecular target: High affinity 3',5'-cyclic-AMP phosphodiesterase 7A (Homo sapiens, UniProt Q13946)
[2] = Oral bioavailability in Sprague-Dawley rat at 10 mg/kg by LC-MS/MS method; assay type: ADME, organism-based; details: in vivo
Rattus norvegicus = assay: Increase in intracavernous pressure/blood pressure in Sprague-Dawley rat model of erection at 10 mg/kg, po measured 30 mins post dose; assay type: functional, organism-based; design: dose 10 mg/kg
[3] = Inhibition of dog adrenal gland PDE2 by [3H]cGMP based tritium scintillation proximity assay; assay type: tissue-based, Canis lupus familiaris
[4] = Volume of distribution in Sprague-Dawley rat at 5 mg/kg, iv by LC-MS/MS method; assay type: ADME, organism-based; design: dose 5 mg/kg, route intravenous; details: in vivo
[5] = Cmax in Sprague-Dawley rat at 10 mg/kg, po by LC-MS/MS method; assay type: ADME, organism-based; design: dose 10 mg/kg, route oral; details: in vivo
[6] = Clearance in Sprague-Dawley rat at 5 mg/kg, iv by LC-MS/MS method; assay type: ADME, organism-based; design: dose 5 mg/kg, route intravenous; details: in vivo
[7] = Half life in Sprague-Dawley rat at 10 mg/kg, po by LC-MS/MS method; assay type: ADME, organism-based; design: dose 10 mg/kg, route oral; details: in vivo
[8] = AUC (0 to 10 hrs) in Sprague-Dawley rat at 10 mg/kg, po by LC-MS/MS method; assay type: ADME, organism-based; design: time < 10 hr, dose 10 mg/kg, route oral; details: plasma
[9] = Tmax in Sprague-Dawley rat at 10 mg/kg, po by LC-MS/MS method; assay type: ADME, organism-based; design: dose 10 mg/kg, route oral; details: in vivo
[10] = Half life in Sprague-Dawley rat at 5 mg/kg, iv by LC-MS/MS method; assay type: ADME, organism-based; design: dose 5 mg/kg, route intravenous; details: in vivo
[11] = MRT (0 to 10 hrs) in Sprague-Dawley rat at 10 mg/kg, po by LC-MS/MS method; assay type: ADME, organism-based; design: dose 10 mg/kg, route oral; details: in vivo
[12] = AUC (0 to 10 hrs) in Sprague-Dawley rat at 5 mg/kg, iv by LC-MS/MS method; assay type: ADME, organism-based; design: time < 10 hr, dose 5 mg/kg, route intravenous; details: plasma
[13] = MRT (0 to 10 hrs) in Sprague-Dawley rat at 5 mg/kg, iv by LC-MS/MS method; assay type: ADME, organism-based; design: dose 5 mg/kg, route intravenous; details: in vivo

Chain of High affinity 3',5'-cyclic-AMP phosphodiesterase 7A (Q13946 whole entry): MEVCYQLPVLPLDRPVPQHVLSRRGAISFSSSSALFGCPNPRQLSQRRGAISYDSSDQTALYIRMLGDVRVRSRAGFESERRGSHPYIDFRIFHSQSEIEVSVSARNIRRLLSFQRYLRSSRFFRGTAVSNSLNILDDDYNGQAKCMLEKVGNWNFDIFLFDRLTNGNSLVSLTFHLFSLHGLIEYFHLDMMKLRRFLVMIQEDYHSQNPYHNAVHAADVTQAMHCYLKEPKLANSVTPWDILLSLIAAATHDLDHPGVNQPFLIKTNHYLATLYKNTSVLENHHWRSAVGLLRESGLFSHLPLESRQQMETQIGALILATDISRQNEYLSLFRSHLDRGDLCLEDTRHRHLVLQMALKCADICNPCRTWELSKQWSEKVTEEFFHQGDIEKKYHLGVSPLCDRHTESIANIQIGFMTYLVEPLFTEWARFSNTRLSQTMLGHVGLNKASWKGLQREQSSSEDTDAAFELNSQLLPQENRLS

| Compound | IC50 [1] [µM] | bioavailability [2] [%] | Activity (Rattus norvegicus) | IC50 [3] [µM] | Vd [4] [L/kg] | Cmax [5] [ng/mL] | clearance [6] [mL/min/kg] | half-life [7] [h] | AUC(0-t) at 10 h [8] [ng·h/mL] | Tmax [9] [h] | half-life [10] [h] | MRT last [11] [h] | AUC(0-t) at 10 h [12] [ng·h/mL] | MRT last [13] [h] |
| --- | --- | --- | --- | --- | --- | --- | --- | --- | --- | --- | --- | --- | --- | --- |
| CCCc1nn(C)c2c(=O)[nH]c(-c3cc(S(=O)(=O)N4CCN(C)CC4)ccc3OCC)nc12 | 4.69 | 23 | Active | > 10 | – | – | – | – | – | – | – | – | – | – |
| CCCOc1ccc(S(=O)(=O)N2CCN(C)CC2)cc1-c1nc(CC)c(CC)c(=O)[nH]1 | – | 10 | Active | – | 2.07 | 468 | 19.5 | 3.94 | 895 | 0.25 | 1.29 | 3.09 | 4470 | 0.81 |
